Laboratory results reported in patent US20230287044A1, “NOVEL ANTIBACTERIAL PEPTIDE AND USE THEREOF” (priority 2020, published 2023).
Values after ≈ are worked out from the molar mass of the structure shown. Where two headings read alike, the source gives them in different places. Square brackets hold non-standard residues; d marks the D form. Ends that are not written are not given here. Peptide text beside a SMILES is read from it. * marks the point of attachment. Decanoyl = CCCCCCCCCC(=O)*

Experiments:
[1] = system: MRPA (P. aeruginosa) CCARM 2180; format: cell-based, Pseudomonas aeruginosa
Method: (§1) The minimum growth inhibitory concentrations of the antibacterial peptides of the present invention weremeasured, and the results are shown in Table 3 below.
(§2) Specifically, the strains were grown in CAMHB until the midlog phase, and then diluted with PBS buffer to 1× 10^6 cfu/ml to prepare the bacterial solution, and the antibacterial peptide prepared in Example 1above was diluted with CAMHB to 80 µM, 40 µM, 20 µM, 10 µM, 5 µM, 2.5 µM, 1.25 µM and 0.63 µM, and then the bacterial solution was treated with the same volume.
(§3) The results are the average value of three independent experiments.

[2] = system: MRAB (A. baumannii) ATCC BAA 1605; format: cell-based, Acinetobacter baumannii
Method: as §1, §2, §3

[3] = system: MRSA (S. aureus) KCCM 40510; format: cell-based, Staphylococcus aureus
Method: as §1, §2, §3

[4] = system: VRE (E. faecalis) ATCC 51575; format: cell-based, Enterococcus faecalis
Method: as §1, §2, §3

[5] = CAMHB, 37° C., 18 hours, average of three experiments

Row | Compound | MIC MRPA (P. aeruginosa) CCARM 2180 ([1]; CCARM 2180, 18 h) | MIC MRAB (A. baumannii) ATCC BAA 1605 ([2]; ATCC BAA 1605, 18 h) | MIC MRSA (S. aureus) KCCM 40510 ([3]; KCCM 40510, 18 h) | MIC VRE (E. faecalis) ATCC 51575 ([4]; ATCC 51575, 18 h) | MIC MRAB (A. baumannii) ATCC BAA 1605 [2, 5] | MIC MRSA (S. aureus) KCCM 40510 [3, 5] | MIC VRE (E. faecalis) ATCC 51575 [4, 5] | MIC MRPA (P. aeruginosa) CCARM 2180 [1, 5]
1 | CCCCCCCCCC(=O)NCCCC[C@@H](NC(=O)[C@@H](CCCCN)NC(=O)[C@@H](CCCNC(=N)N)NC(=O)[C@@H](CC(C)C)NC(=O)[C@@H](C)NC(=O)[C@H](NC(=O)[C@@H](Cc1c[nH]c2ccccc12)NC(=O)[C@@H](CC(C)C)NC(=O)[C@@H](CC(C)C)NC(=O)[C@H](N)Cc1c[nH]c2ccccc12)[C@H](C)CC)C(N)=O [KSH7, wllwialrkk] (H-[dW][dL][dL][dW][dI][dA][dL][dR][dK][dK](Decanoyl)-NH2; N-terminus assumed) | >40 µM | >40 µM | 10 µM (≈ 14.8 µg/mL) | 10 µM (≈ 14.8 µg/mL) | – | – | – | –
2 | CCCCCCCCCC(=O)NCCCC[C@@H](NC(=O)[C@@H](CCCCN)NC(=O)[C@@H](CCCNC(=N)N)NC(=O)[C@@H](CC(C)C)NC(=O)[C@@H](C)NC(=O)[C@H](NC(=O)[C@@H](Cc1c[nH]c2ccccc12)NC(=O)[C@@H](CC(C)C)NC(=O)[C@@H](CC(C)C)NC(=O)[C@H](N)Cc1c[nH]c2ccccc12)[C@H](C)CC)C(=O)N[C@H](CCCNC(=N)N)C(N)=O [KSH4, wllwialrkkr] (H-[dW][dL][dL][dW][dI][dA][dL][dR][dK][dK](Decanoyl)[dR]-NH2; N-terminus assumed) | >40 µM | >40 µM | 5 µM (≈ 8.18 µg/mL) | 5 µM (≈ 8.18 µg/mL) | – | – | – | –
3 | WLLWIALRKKR-NH2 [KSH1] | 40 µM | – | – | – | 5 µM | 2.5 µM | 5 µM | –
4 | CC[C@H](C)[C@H](NC(=O)CN)C(=O)NCC(=O)N[C@@H](C)C(=O)N[C@H](C(=O)N[C@@H](CC(C)C)C(=O)N[C@@H](CCCCN)C(=O)N[C@H](C(=O)N[C@@H](CC(C)C)C(=O)N[C@H](C(=O)N[C@H](C(=O)NCC(=O)N[C@@H](CC(C)C)C(=O)N1CCC[C@H]1C(=O)N[C@@H](C)C(=O)N[C@@H](CC(C)C)C(=O)N[C@H](C(=O)N[C@@H](CO)C(=O)N[C@@H](Cc1c[nH]c2ccccc12)C(=O)N[C@H](C(=O)N[C@@H](CCCCN)C(=O)N[C@@H](CCCNC(=N)N)C(=O)N[C@@H](CCCCN)C(=O)N[C@@H](CCCNC(=N)N)C(=O)N[C@@H](CCC(N)=O)C(=O)N[C@@H](CCC(N)=O)C(N)=O)[C@@H](C)CC)[C@@H](C)CC)[C@@H](C)O)[C@@H](C)O)C(C)C)C(C)C [Melittin, reference compound] | – | – | – | – | 1.25 µM (≈ 3.56 µg/mL) | – | 1.25 µM (≈ 3.56 µg/mL) | >40 µM
5 | CC[C@@H](C)[C@@H](NC(=O)[C@@H](Cc1c[nH]c2ccccc12)NC(=O)[C@@H](C)NC(=O)[C@@H](C)NC(=O)[C@H](N)Cc1c[nH]c2ccccc12)C(=O)NCC(=O)N[C@H](CC(C)C)C(=O)N[C@H](CCCNC(=N)N)C(=O)N[C@H](CCCCN)C(=O)N[C@H](CCCCN)C(=O)N[C@H](CCCNC(=N)N)C(N)=O [KSH20, waawiglrkkr] (H-[dW][dA][dA][dW][dI]G[dL][dR][dK][dK][dR]-NH2; N-terminus assumed) | >40 µM | – | >40 µM | >40 µM | – | – | – | –

The next lines start with results.

Row | MIC MRPA (P. aeruginosa) CCARM 2180 ([1]; CCARM 2180, 18 h) | MIC MRAB (A. baumannii) ATCC BAA 1605 ([2]; ATCC BAA 1605, 18 h) | MIC MRSA (S. aureus) KCCM 40510 ([3]; KCCM 40510, 18 h) | MIC VRE (E. faecalis) ATCC 51575 ([4]; ATCC 51575, 18 h) | Compound | MIC MRAB (A. baumannii) ATCC BAA 1605 [2, 5] | MIC MRSA (S. aureus) KCCM 40510 [3, 5] | MIC VRE (E. faecalis) ATCC 51575 [4, 5] | MIC MRPA (P. aeruginosa) CCARM 2180 [1, 5]
6 | 5 µM (≈ 7.64 µg/mL) | 10 µM (≈ 15.3 µg/mL) | 1.25 µM (≈ 1.91 µg/mL) | 1.25 µM (≈ 1.91 µg/mL) | CC(C)[C@@H](NC(=O)[C@@H](Cc1c[nH]c2ccccc12)NC(=O)[C@H](NC(=O)[C@H](NC(=O)[C@@H](Cc1c[nH]c2ccccc12)NC(=O)[C@@H](CCCNC(=N)N)NC(=O)[C@@H](CCCNC(=N)N)NC(=O)[C@H](N)CCCNC(=N)N)C(C)C)C(C)C)C(=O)N[C@H](Cc1c[nH]c2ccccc12)C(=O)N[C@H](Cc1c[nH]c2ccccc12)C(N)=O [KSH83, rrrwvvwvww] (H-[dR][dR][dR][dW][dV][dV][dW][dV][dW][dW]-NH2; N-terminus assumed) | – | – | – | –
7 | 2.5 µM (≈ 4.04 µg/mL) | 10 µM (≈ 16.1 µg/mL) | 1.25 µM (≈ 2.02 µg/mL) | 1.25 µM (≈ 2.02 µg/mL) | CC(C)[C@@H](NC(=O)[C@@H](Cc1c[nH]c2ccccc12)NC(=O)[C@@H](Cc1c[nH]c2ccccc12)NC(=O)[C@H](NC(=O)[C@@H](Cc1c[nH]c2ccccc12)NC(=O)[C@@H](CCCNC(=N)N)NC(=O)[C@@H](CCCNC(=N)N)NC(=O)[C@H](N)CCCNC(=N)N)C(C)C)C(=O)N[C@H](Cc1c[nH]c2ccccc12)C(=O)N[C@H](Cc1c[nH]c2ccccc12)C(N)=O [KSH79, rrrwvwwvww] (H-[dR][dR][dR][dW][dV][dW][dW][dV][dW][dW]-NH2; N-terminus assumed) | – | – | – | –
8 | >40 µM | 2.5 µM | >40 µM | 10 µM | VWVWVWVRKKR-NH2 [LSH99] | – | – | – | –
9 | 10 µM (≈ 13.7 µg/mL) | 5 µM (≈ 6.86 µg/mL) | 10 µM (≈ 13.7 µg/mL) | 10 µM (≈ 13.7 µg/mL) | CC(C)[C@@H](NC(=O)[C@@H](Cc1c[nH]cn1)NC(=O)[C@@H](CCCNC(=N)N)NC(=O)[C@@H](CCCNC(=N)N)NC(=O)[C@H](N)CCCNC(=N)N)C(=O)N[C@H](Cc1c[nH]cn1)C(=O)N[C@@H](C(=O)N[C@@H](C(=O)N[C@H](Cc1c[nH]c2ccccc12)C(=O)N[C@H](CCCCN)C(N)=O)C(C)C)C(C)C [KSH58, rrrhvhvvwk] (H-[dR][dR][dR][dH][dV][dH][dV][dV][dW][dK]-NH2; N-terminus assumed) | – | – | – | –
10 | 2.5 µM (≈ 3.6 µg/mL) | 10 µM (≈ 14.4 µg/mL) | 1.25 µM (≈ 1.8 µg/mL) | 1.25 µM (≈ 1.8 µg/mL) | CC(C)[C@@H](NC(=O)[C@@H](Cc1c[nH]c2ccccc12)NC(=O)[C@H](NC(=O)[C@H](NC(=O)[C@@H](Cc1c[nH]c2ccccc12)NC(=O)[C@@H](CCCNC(=N)N)NC(=O)[C@@H](CCCNC(=N)N)NC(=O)[C@H](N)CCCNC(=N)N)C(C)C)C(C)C)C(=O)N[C@@H](C(=O)N[C@H](Cc1c[nH]c2ccccc12)C(N)=O)C(C)C [KSH84, rrrwvvwvvw] (H-[dR][dR][dR][dW][dV][dV][dW][dV][dV][dW]-NH2; N-terminus assumed) | – | – | – | –
11 | 40 µM (≈ 58.8 µg/mL) | 5 µM (≈ 7.35 µg/mL) | 10 µM (≈ 14.7 µg/mL) | 10 µM (≈ 14.7 µg/mL) | CC[C@H](C)[C@H](NC(=O)[C@H](Cc1c[nH]c2ccccc12)NC(=O)[C@@H](NC(=O)[C@H](CC(C)C)NC(=O)[C@@H](N)Cc1c[nH]c2ccccc12)C(C)C)C(=O)N[C@@H](Cc1c[nH]c2ccccc12)C(=O)N[C@@H](CCCNC(=N)N)C(=O)N[C@@H](CCCCN)C(=O)N[C@@H](CCCCN)C(=O)N[C@@H](CCCNC(=N)N)C(N)=O [LSH28] | – | – | – | –
12 | 10 µM (≈ 14.7 µg/mL) | 1.25 µM (≈ 1.83 µg/mL) | 2.5 µM (≈ 3.67 µg/mL) | 2.5 µM (≈ 3.67 µg/mL) | CC[C@@H](C)[C@@H](NC(=O)[C@@H](Cc1c[nH]c2ccccc12)NC(=O)[C@H](NC(=O)[C@@H](CC(C)C)NC(=O)[C@H](N)Cc1c[nH]c2ccccc12)[C@H](C)CC)C(=O)NCC(=O)N[C@H](CC(C)C)C(=O)N[C@H](CCCNC(=N)N)C(=O)N[C@H](CCCCN)C(=O)N[C@H](CCCCN)C(=O)N[C@H](CCCNC(=N)N)C(N)=O [KSH I, wliwiglrkk r] (H-[dW][dL][dI][dW][dI]G[dL][dR][dK][dK][dR]-NH2; N-terminus assumed) | – | – | – | –
13 | 40 µM | 5 µM | 10 µM | 10 µM | WLLWLYARKKR-NH2 [LSH9] | – | – | – | –
